Measurements published in patent US5510340A, “Antihypercholesterolemic compounds and related pharmaceutical compositions and methods of use” (SRI International, priority 1992, dated 1996).
pIC50: −log10 of the molar value.

How the values were obtained:
[1] = tested on: Cholesterol Biosynthesis in CHO Cells; test: In Vitro Assay for Inhibition of Cholesterol Biosynthesis in CHO Cells; assay type: cell-based, Chinese Hamster; settings: Cricetulus griseus, 14C-acetate incorporation into cholesterol, 16-18 h incubation with compound
Method: Chinese Hamster ovary (CHO) cells were seeded at 1×10^5 cells per 60-mm Petri dish and incubated at 37° C. in F-12 medium supplemented with fetal calf serum (5%). After 24 h, the medium was aspirated and replaced with delipidated calf serum in F-12 medium containing the test compounds. At various concentrations, either ethanol or dimethyl sulfoxide was used to dissolve the test compounds to a final concentration of 0.1% in the cell medium. Controls contained the vehicle alone. After incubation for 16-18 h, ^14 C-acetate (20 μM final concentration) was added and incubation continued for 5.5 h. […] The cells were then scraped off the plates with a rubber policeman into saline (2 mL). An aliquot for protein was taken, and the remainder of the cell suspension was centrifuged at 800×g for 10 min. The supernatant was discarded and the pellet extracted by vortexing 15 s in chloroform:methanol (2 mL of 2:1). […] NaCl (0.4 mL) was added, vortexed, and centrifuged, and the top layer was discarded. A portion of the upper phase mixture of chloroform:methanol:water (0.4 mL of 3:48:47) was added and gently swirled to avoid mixing with the bottom layer. The resultant samples were centrifuged, and the top layer was discarded. The procedure was repeated before methanol was finally added to combine the two layers and the solvent was evaporated. Chloroform (200 μL) was added to the residue and an aliquot (150 μL) taken. To the aliquot was added cholesterol (40 μg in 20 μL), and the samples were concentrated. The lipids were dissolved in chloroform (50 μL) and spotted on silica gel G thin-layer chromatography plates. After development in hexane:ether:acetic acid (80:20:1), the ^14 C-cholesterol spot was located with iodine vapor and scraped into a scintillation vial, and the radioactivity was counted with a scintillation counter.

[2] = tested on: Cholesterol Levels in Plasma of Rats; test: Assay for Lowering Cholesterol Levels in Rats with Oral Administration of Test Compound 15; assay type: in vivo, Male Sprague-Dawley rats; settings: rat plasma, gavage, mean ± S.E.
Method: Male Sprague-Dawley rats weighing 120 to 150 g were used. The animals were placed on a cholesterol-free diet immediately upon arrival and housed in a room with a reverse light cycle. One week after they had adapted to the light cycle, the experiment was begun by gavaging the animals three times daily with various amounts of test compound 13 suspended in 1.0 mL of saline. The control group received 1.0 mL of saline alone. On the seventh day of the experiment, sodium 1-^14 C! acetate (20 μCi/rat) was injected intraperitoneally 30 min after the oral administration (gavage) of test compounds and 2 h before the mid-dark point in the diurnal cycle; 4 h after the ^14 C-acetate injection, the animals were killed and blood samples were collected after decapitation. Plasma was obtained by centrifuging blood in an EDTA-treated centrifuge tube at 3000 rpm for 10 min. Cholesterol synthesis was measured by determining the level of ^14 C-labeled nonsaponifiable lipid present in 1.0 mL of plasma; 1.0 mL of plasma was first mixed with 1.0 mL of saline, followed by 5.0 mL of 10% KOH in absolute ethanol. Samples were saponified at 75° C. for 1 h. After cooling, 44,000 dpm, 0.5 nmol of 1,2-^3 H! cholesterol was added to each sample as an internal standard for calculating recovery through the extraction procedure. Samples were extracted once with 5 mL of petroleum ether, and the organic phase was backwashed with 5 mL of saline. The extracts were dried on a nitrogen evaporator, and the residue was reconstituted into 0.5 mL of CHCl3 -MeOH (2:1). The 0.5-mL reconstituted samples were transferred into counting vials containing 2 mL of ethanol, and both ^3 H and ^14 C were counted in 10 mL of scintillation fluid. The ^3 H-cholesterol internal standard recovery value from each sample was used to correct each sample to 100% recovery of ^14 C-cholesterol. The total cholesterol level and HDL in each plasma sample was also measured. The comparison between test groups and the control group was evaluated for both cholesterol levels and ^14 C-acetate incorporation.
(c.) Assay for Lowering Cholesterol Levels in Rats with Oral Administration of Test Compound 15:
The experiment was carried out as described in (b.). However, in this experiment, blood was drawn on days 0, 3 and 7. Total cholesterol levels and HDL were measured on these blood samples.

C[C@H](CCCC(C)(C)O)[C@H]1CC[C@H]2[C@@H]3CC=C4C[C@@H](O)CC[C@]4(C)[C@H]3CC[C@]12C
pIC50 [1]: 6.46

CC(C)CCC[C@@H](C)[C@H]1CC(=O)C2=C3[C@H](O)C[C@H]4C[C@@H](O)CC[C@]4(C)[C@H]3CC[C@@]21C
pIC50 [1]: 5.80

CC(C)CCC[C@@H](C)[C@H]1C[C@H]2C3=C4[C@@H](C[C@H]5C[C@@H](O)CC[C@]5(C)[C@H]4CC[C@@]31C)n1c(=O)c3ccccc3c(=O)n12
pIC50 [1]: 5.68

CCOC(=O)N1[C@@H]2C[C@H]3C[C@@H](O)CC[C@]3(C)[C@H]3CC[C@@]4(C)C(=C23)[C@H](C[C@@H]4[C@H](C)CCCC(C)C)N1C(=O)OCC
pIC50 [1]: 6.10

CCOC(=O)N1[C@@H]2C[C@H]3C[C@@H](OC(=O)c4ccccc4)CC[C@]3(C)[C@H]3CC[C@@]4(C)C(=C23)[C@H](C[C@@H]4[C@H](C)CCCC(C)C)N1C(=O)OCC
pIC50 [1]: 5.89

CC(C)CCC[C@@H](C)[C@H]1C[C@H]2C3=C4[C@@H](C[C@H]5C[C@@H](O)CC[C@]5(C)[C@H]4CC[C@@]31C)N(C)N2C
pIC50 [1]: 5.80

C[C@H](CCCC(C)(C)O)[C@H]1Cc2nnc3c4c2[C@]1(C)CC[C@@H]4[C@@]1(C)CC[C@H](O)C[C@@H]1C3
pIC50 [1]: 5.47

C[C@H](CCCC(C)(C)F)[C@H]1Cc2nnc3c4c2[C@]1(C)CC[C@@H]4[C@@]1(C)CC[C@H](O)C[C@@H]1C3
pIC50 [1]: 6.80

CC(C)[C@@H](C)/C=C/[C@@H](C)[C@H]1Cc2nnc3c4c2[C@]1(C)CC[C@@H]4[C@@]1(C)CC[C@H](O)C[C@@H]1C3
pIC50 [1]: 6.96

CC(C)CCC[C@@H](C)[C@H]1C[C@H](O)C2=C3C(=O)C[C@H]4C[C@@H](O)CC[C@]4(C)[C@H]3CC[C@@]21C
pIC50 [1]: 5.96

CC(C)CCC[C@@H](C)[C@H]1C[C@H](O)C2=C3C(=O)C[C@H]4C[C@@H](OC(=O)c5ccccc5)CC[C@]4(C)[C@H]3CC[C@@]21C
pIC50 [1]: 5.46

CO[C@@H]1C[C@H]([C@H](C)CCCC(C)C)[C@@]2(C)CC[C@H]3C(=C12)CC[C@H]1C[C@@H](O)CC[C@@]13C
pIC50 [1]: 6.05

CC(C)CCC[C@@H](C)[C@H]1CC(=O)C2=C3[C@H](F)C[C@H]4C[C@@H](OC(=O)c5ccccc5)CC[C@]4(C)[C@H]3CC[C@@]21C
pIC50 [1]: 6.70

CC(C)CCC[C@@H](C)[C@H]1Cc2n[n+]([O-])c3c4c2[C@]1(C)CC[C@@H]4[C@@]1(C)CC[C@H](O)C[C@@H]1C3
pIC50 [1]: > 6.60

CC(C)CCC[C@@H](C)[C@H]1Cc2cnc3c4c2[C@]1(C)CC[C@@H]4[C@@]1(C)CC[C@H](O)C[C@@H]1C3 [Compound 15, pyridino 2',3',4',5':7,8,14,15!cholestan-3β-ol]
Cholesterol Levels, HDL ([2]; Day 0, 0.16 mg/rat/day, control 42.2 ± 4.40): 39.6 ± 2.06 Mg/100 mL
Cholesterol Levels, Total ([2]; Day 0, 0.16 mg/rat/day, control 95.8 ± 9.79): 94.8 ± 5.5 Mg/100 mL
Cholesterol Levels, HDL ([2]; Day 0, 0.33 mg/rat/day, control 42.2 ± 4.40): 35.8 ± 1.91 Mg/100 mL
Cholesterol Levels, Total ([2]; Day 0, 0.33 mg/rat/day, control 95.8 ± 9.79): 99.0 ± 3.7 Mg/100 mL
Cholesterol Levels, HDL ([2]; Day 0, 1.0 mg/rat/day, control 42.2 ± 4.40): 37.8 ± 3.01 Mg/100 mL
Cholesterol Levels, Total ([2]; Day 0, 1.0 mg/rat/day, control 95.8 ± 9.79): 88.8 ± 7.78 Mg/100 mL
Cholesterol Levels, HDL ([2]; Day 0, 3.0 mg/rat/day, control 42.2 ± 4.40): 35.2 ± 3.14 Mg/100 mL
Cholesterol Levels, Total ([2]; Day 0, 3.0 mg/rat/day, control 95.8 ± 9.79): 85.6 ± 6.57 Mg/100 mL
Cholesterol Levels, HDL ([2]; Day 3, 0.16 mg/rat/day, control 41.6 ± 2.62): 36.4 ± 1.36 Mg/100 mL
Cholesterol Levels, Total ([2]; Day 3, 0.16 mg/rat/day, control 85.2 ± 2.95): 83.6 ± 3.56 Mg/100 mL
Cholesterol Levels, HDL ([2]; Day 3, 0.33 mg/rat/day, control 41.6 ± 2.62): 35.8 ± 2.40 Mg/100 mL
Cholesterol Levels, Total ([2]; Day 3, 0.33 mg/rat/day, control 85.2 ± 2.95): 75.6 ± 1.94 Mg/100 mL
Cholesterol Levels, HDL ([2]; Day 3, 1.0 mg/rat/day, control 41.6 ± 2.62): 34.4 ± 1.69 Mg/100 mL
Cholesterol Levels, Total ([2]; Day 3, 1.0 mg/rat/day, control 85.2 ± 2.95): 78.8 ± 2.86 Mg/100 mL
Cholesterol Levels, HDL ([2]; Day 3, 3.0 mg/rat/day, control 41.6 ± 2.62): 29.6 ± 0.98 Mg/100 mL
Cholesterol Levels, Total ([2]; Day 3, 3.0 mg/rat/day, control 85.2 ± 2.95): 72.2 ± 2.95 Mg/100 mL
Cholesterol Levels, HDL ([2]; Day 7, 0.16 mg/rat/day, control 49.6 ± 4.01): 39.8 ± 1.02 Mg/100 mL
Cholesterol Levels, Total ([2]; Day 7, 0.16 mg/rat/day, control 84.8 ± 4.40): 69.4 ± 3.66 Mg/100 mL
Cholesterol Levels, HDL ([2]; Day 7, 0.33 mg/rat/day, control 49.6 ± 4.01): 36.0 ± 2.55 Mg/100 mL
Cholesterol Levels, Total ([2]; Day 7, 0.33 mg/rat/day, control 84.8 ± 4.40): 57.6 ± 2.89 Mg/100 mL
Cholesterol Levels, HDL ([2]; Day 7, 1.0 mg/rat/day, control 49.6 ± 4.01): 25.0 ± 1.87 Mg/100 mL
Cholesterol Levels, Total ([2]; Day 7, 1.0 mg/rat/day, control 84.8 ± 4.40): 58.0 ± 4.06 Mg/100 mL
Cholesterol Levels, HDL ([2]; Day 7, 3.0 mg/rat/day, control 49.6 ± 4.01): 15.4 ± 1.40 Mg/100 mL
Cholesterol Levels, Total ([2]; Day 7, 3.0 mg/rat/day, control 84.8 ± 4.40): 46.4 ± 2.23 Mg/100 mL

CC(C)CCC[C@@H](C)[C@H]1CC(=O)C2=C3CC[C@H]4C[C@@H](O)CC[C@]4(C)[C@H]3CC[C@@]21C [drawing 26]
pIC50 [1]: 5.85

CC(C)CCC[C@@H](C)[C@H]1Cc2nnc3c4c2[C@]1(C)CC[C@@H]4[C@@]1(C)CC[C@H](O)C[C@@H]1C3 [drawing 35]
pIC50 [1]: 7.05

CC(C)CCC[C@@H](C)[C@H]1Cc2cnc3c4c2[C@]1(C)CC[C@@H]4[C@@]1(C)CC[C@H](O)C[C@@H]1C3 [drawing 39]
pIC50 [1]: 7.30
